Molecules are shown by their SMILES. Values joined by “and” are separate entries in the source; they are usually repeats but may differ in a detail not shown here. Identical values can stand only once.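 Five concentrations, 48 hours, 96-well plates. At the GI50, growth is halved. TGI marks complete inhibition of growth.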 A value given as a limit tells only on which side of the number the result lay.

Among the data in PubChem BioAssay (NCI) are GI50 and TGI values, retold here.

Among the test systems are HCC-2998 colon; NCI-H522 lung; 786-0 renal; OVCAR-3 ovarian; SW-620 colon; NCI-H460 lung; SK-MEL-5 melanoma; T-47D breast; UO-31 renal; OVCAR-8 ovarian.
Common to all, as to experiment: NCI tumour cell line growth inhibition, 48 h

As to `N#Cc1c2ccccc2c2nnc3cc(Cl)c(Cl)cc3n12`, the GI50 was 23 µM with HCC-2998 colon; 39.2 µM in the test with NCI-H522 lung; above 100 µM with 786-0 renal; 33.1 µM in the test on OVCAR-3 ovarian; above 100 µM with SW-620 colon; 54.2 µM in the test on NCI-H460 lung. Also, the GI50 was 84.2 µM in the test with SK-MEL-5 melanoma, above 100 µM in the test on T-47D breast, 23.3 µM with UO-31 renal and 40 µM in the test with OVCAR-8 ovarian. The TGI with HCC-2998 colon is 82.1 µM; with NCI-H522 lung, above 100 µM; in the test on 786-0 renal, above 100 µM; with OVCAR-3 ovarian, 95.9 µM; in the test on SW-620 colon, above 100 µM; with NCI-H460 lung, above 100 µM. In addition, the TGI was above 100 µM with SK-MEL-5 melanoma, above 100 µM with T-47D breast, 65.8 µM in the test with UO-31 renal and above 100 µM in the test with OVCAR-8 ovarian.
For the compound `CC1=C(C(=O)Nc2ccc(F)c(Cl)c2)C(c2cccc(Cl)c2)NC(=O)N1` (stereo not drawn), the GI50 in the test on HCC-2998 colon is 18.3 µM; in the test with NCI-H522 lung, 15.9 µM; in the test with 786-0 renal, 17.4 µM; in the test with OVCAR-3 ovarian it was 19.5 µM; in the test with SW-620 colon it was 18.9 µM; with NCI-H460 lung, 16.4 µM. Further, the GI50 with SK-MEL-5 melanoma was 13.6 µM; with T-47D breast, 15.4 µM; in the test on UO-31 renal, 16.1 µM; in the test with OVCAR-8 ovarian it was 17.5 µM. The TGI in the test with HCC-2998 colon turned out to be 32.5 µM; in the test with NCI-H522 lung, 33 µM; with 786-0 renal it was 35.3 µM; in the test on OVCAR-3 ovarian, 56.2 µM; in the test with SW-620 colon, 40.7 µM; with NCI-H460 lung it was 34 µM. The TGI in the test on SK-MEL-5 melanoma is 26.9 µM; with T-47D breast it was 53.1 µM; in the test with UO-31 renal, 38.1 µM; with OVCAR-8 ovarian, 39.7 µM.
As for `O=[N+]([O-])c1ccc2[nH]cc(-c3c4ccccc4cc4[nH]c5ccc([N+](=O)[O-])cc5c34)c2c1`, the GI50 with HCC-2998 colon is 2.33 µM; with NCI-H522 lung, 2.12 µM; in the test on 786-0 renal, 1.94 µM; with OVCAR-3 ovarian, 2.57 µM; in the test on SW-620 colon, 2.73 µM; in the test on NCI-H460 lung it was 2.72 µM. Besides, the GI50 with SK-MEL-5 melanoma is 1.62 µM; with T-47D breast it was 1.71 µM; in the test on UO-31 renal it was 1.76 µM; in the test with OVCAR-8 ovarian, 2.59 µM. Moreover, the TGI was 4.58 µM in the test on HCC-2998 colon; 6.1 µM in the test on NCI-H522 lung; 4.09 µM with 786-0 renal; 7.32 µM in the test with OVCAR-3 ovarian; 8.84 µM in the test with SW-620 colon; 7.7 µM in the test on NCI-H460 lung. Moreover, the TGI in the test with SK-MEL-5 melanoma worked out at 2.98 µM; with T-47D breast, 4.74 µM; with UO-31 renal it was 5.1 µM; with OVCAR-8 ovarian it was 8.17 µM.
Consider `Cn1c(=O)c(F)c(Nc2ccc(I)cc2F)c2c(=O)n(C[C@@H](O)CO)cnc21`, for which the GI50 with HCC-2998 colon was < 0.01 µM and 0.0028 µM; with 786-0 renal it was 4.59 µM and 1.3 µM; in the test with OVCAR-3 ovarian it was 13.6 µM; in the test with SW-620 colon, < 0.01 µM and 0.00521 µM; in the test on SK-MEL-5 melanoma, < 0.0268 µM and 0.0448 µM; in the test with T-47D breast it was 18.2 µM. Moreover, the GI50 with UO-31 renal was 0.304 µM and 0.0568 µM; in the test on OVCAR-8 ovarian, 7.91 µM. Moreover, the TGI in the test with HCC-2998 colon is 0.0969 µM and 0.57 µM; with NCI-H522 lung, above 100 µM; in the test with 786-0 renal it was 21.4 µM and > 4.58 µM; in the test with OVCAR-3 ovarian, 40.4 µM and > 3.85 µM; in the test on SW-620 colon, above 64.1 µM; with NCI-H460 lung it was above 100 µM. The TGI is 17.9 µM and > 3.46 µM with SK-MEL-5 melanoma; above 96.5 µM with T-47D breast; 15.4 µM and > 4.09 µM with UO-31 renal; above 100 µM in the test with OVCAR-8 ovarian.
Consider `C[n+]1c2ccccc2c(NC2CCNCC2)c2[nH]c3ccccc3c21`, for which the GI50 is 0.331 µM in the test with HCC-2998 colon; 0.124 µM with NCI-H522 lung; 2.46 µM with 786-0 renal; 0.969 µM in the test on OVCAR-3 ovarian; 1.23 µM in the test with SW-620 colon; 0.223 µM in the test with NCI-H460 lung. Besides, the GI50 was 0.488 µM in the test with SK-MEL-5 melanoma, 0.217 µM with T-47D breast, 13.9 µM in the test on UO-31 renal and 1.42 µM with OVCAR-8 ovarian. The TGI in the test on HCC-2998 colon turned out to be 1.63 µM; with NCI-H522 lung, 0.699 µM; in the test on 786-0 renal, 16.3 µM; in the test with OVCAR-3 ovarian, 5.87 µM; in the test on SW-620 colon, 6.73 µM; in the test with NCI-H460 lung, 1.53 µM. Moreover, the TGI is 2.32 µM in the test on SK-MEL-5 melanoma, 2.04 µM with T-47D breast, 43.7 µM with UO-31 renal and 12.8 µM in the test with OVCAR-8 ovarian.
In the case of `O=C(Nc1ccccc1Cl)c1ccc(NC2=C(Cl)C(=O)N(Cc3ccccc3)C2=O)cc1`, the GI50 in the test on HCC-2998 colon was 13.7 µM; in the test on NCI-H522 lung, 17.9 µM; with 786-0 renal it was 24.8 µM; with OVCAR-3 ovarian it was 18.7 µM; in the test with SW-620 colon it was 25.4 µM; in the test with NCI-H460 lung, 33.3 µM. Besides, the GI50 in the test with SK-MEL-5 melanoma was 32.7 µM; in the test with T-47D breast, 62.4 µM; in the test with UO-31 renal, above 100 µM; in the test with OVCAR-8 ovarian it was 18.7 µM. The TGI was 26.6 µM with HCC-2998 colon; 38.8 µM in the test on NCI-H522 lung; 57.3 µM in the test on 786-0 renal; 36.6 µM with OVCAR-3 ovarian; 58.1 µM in the test on SW-620 colon; above 100 µM in the test on NCI-H460 lung. Moreover, the TGI in the test with SK-MEL-5 melanoma was above 100 µM; with T-47D breast it was above 100 µM; in the test on UO-31 renal, above 100 µM; with OVCAR-8 ovarian, 36.9 µM.
For `CC1=C(C)C(=O)C(C(C)C2=C(C)C(=O)C(C)=C(C)C2=O)=C(C)C1=O`, the GI50 in the test with HCC-2998 colon was 57.1 µM; in the test with NCI-H522 lung it was 30.5 µM; in the test on 786-0 renal, 50.8 µM; in the test with OVCAR-3 ovarian, 21 µM; in the test with SW-620 colon it was 15.7 µM; with NCI-H460 lung, 26.7 µM. Further, the GI50 is 12.5 µM in the test on SK-MEL-5 melanoma, 12.8 µM in the test on T-47D breast, 27.6 µM with UO-31 renal and 33.3 µM in the test with OVCAR-8 ovarian. For the same compound, the TGI in the test with HCC-2998 colon was above 100 µM; with NCI-H522 lung it was above 100 µM; with 786-0 renal, above 100 µM; in the test with OVCAR-3 ovarian, 54 µM; with SW-620 colon it was 29.8 µM; in the test on NCI-H460 lung, above 100 µM. In addition, the TGI in the test on SK-MEL-5 melanoma was 64.6 µM; with T-47D breast it was 26.4 µM; in the test with UO-31 renal, 85.5 µM; with OVCAR-8 ovarian, above 100 µM.
